The values that follow are results of earlier work, collected in patent publication US8623825B2, “Edible fat composition for enhancing bone strength” (Enzymotec Ltd., priority 2007, dated 2014).

Series [1] has as its system vertebral bone. The settings on record: independent of bone mineral density.
In series [2] the test system is bone of post-menopausal women.

The structures appear in SMILES notation.

Regarding `O=C(c1ccc(OCCN2CCCCC2)cc1)c1c(-c2ccc(O)cc2)sc2cc(O)ccc12` [raloxifene], the Vertebral bone strength result in series [1] is reported as “significantly improved”.
Turning to `F` [fluoride], in series [2] (fluoride treatment), the Bone mass result is listed as “increased bone mass”. In addition, the Skeletal fragility entry in series [2] (particularly non-vertebral bones) was “increased skeletal fragility”.
